This note sets out measurements from patent US8168651B2, “Protein kinase modulators” (Cylene Pharmaceuticals, Inc., priority 2008, dated 2012).

In test [1] the target is recombinant human PIM1 (Homo sapiens (Human), UniProt P11309). The test can be described thus: PIM-1 kinase activity in cell-free in vitro assay. Conditions: cell-free assay; for inhibition at 0.5 µM / PIM-1: % inh 500 nM: 500 nM compound; for inhibition at 0.5 µM: read-out: PIM-1: % inh 500 nM. The test is classed as biochemical.
Test [2] relates to HCT-116 human colorectal carcinoma cells. The test can be described thus: Cell-proliferation assay using Alamar Blue dye.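 Further: cells exposed to compound for about 4 days, then Alamar Blue added and dye fluorescence read after about 4 h, compared with medium-only control wells.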 The test is classed as cell-based. The note with it: Homo sapiens. For orientation: The colour change of resazurin is a common sign of viable cells or microbes.
The subject of test [3] is Jurkat. The test can be described thus: Cell proliferation modulatory activity, Jurkat. Format: cell-based.
[4] abbreviates: HCT-116, read-out: HCT-116 (uM), cell proliferation modulatory activity, HCT-116, second HCT-116 column (c8).
Setting [5] is: HCT-116, HCT-116, second HCT-116 column (c8), read-out: HCT-116 (uM), cell proliferation modulatory activity.

Usually pIC50 stands for −log10 of the IC50, conventionally taken in molar units.

pIC50: −log10 of the molar value. Where two headings read alike, the source gives them in different places.

recombinant human PIM1, sequence (P11309 whole entry): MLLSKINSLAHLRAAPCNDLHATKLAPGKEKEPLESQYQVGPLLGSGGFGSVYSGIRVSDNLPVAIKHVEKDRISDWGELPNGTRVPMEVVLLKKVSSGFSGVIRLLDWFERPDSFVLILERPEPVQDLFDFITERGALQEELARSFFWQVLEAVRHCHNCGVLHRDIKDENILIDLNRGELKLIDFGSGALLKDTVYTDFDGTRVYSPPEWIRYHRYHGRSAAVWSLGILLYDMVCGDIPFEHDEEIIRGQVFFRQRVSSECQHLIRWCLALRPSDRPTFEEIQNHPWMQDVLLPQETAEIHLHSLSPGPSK

With `O=C(O)c1ccc2c(c1)nc(NC1CC1)c1nc(NCc3ccccc3)ncc12` [drawing 1617], the inhibition at 0.5 µM in test [1] was 34.5%. In addition, the IC50 in test [2] (setting [4]) is over 10 µM; in test [3] (Homo sapiens) it was 8.82 µM.
On to `Nc1ncc2c(n1)c(Nc1cccc(Cl)c1)nc1cc(C(=O)O)ccc12`, for which the inhibition at 0.5 µM in test [1] turned out to be 85.7%. The same molecule showed an IC50 in test [3] (Homo sapiens) of 1.14 µM.
For `O=C(O)c1ccc2c(c1)nc(NC1CC1)c1nc(Nc3cccc(C(F)(F)F)c3)ncc12`, the inhibition at 0.5 µM in test [1] worked out at 44.2%. Besides, the IC50 in test [2] (setting [4]) was over 10 µM; in test [3] (Homo sapiens), 2.39 µM.
For the molecule `CCOc1cccc(Nc2ncc3c(n2)c(NC2CC2)nc2cc(C(=O)O)ccc23)c1`, the inhibition at 0.5 µM in test [1] is 32.8%. In addition, the values for the IC50 in test [2] (setting [5]) and in test [3] (Homo sapiens) were 3.77 µM and 5.17 µM, respectively.
Take `Cc1ccc(Nc2nc3cc(C(=O)O)ccc3c3cnccc23)nc1`: the inhibition at 0.5 µM in test [1] stood at 48.3%. In addition, the pIC50 in test [1] was under 5.96. For the same molecule, the results for the IC50 in test [2] (setting [5]) and in test [3] (Homo sapiens) were over 10 µM and 1.26 µM, respectively.
Taken in the same sequence, the figures for `Cc1ccccc1Nc1ncc2c(n1)c(NC1CC1)nc1cc(C(=O)O)ccc12` were 52.8%, 6.00, over 10 µM and 18.6 µM.
Taken in the same sequence, the figures for `COc1cc(Nc2nc3cc(C(=O)O)ccc3c3cnccc23)ccc1C` were 75.8%, 6.13, over 10 µM and 10.7 µM.
On to `CN(C)c1ncc2c(n1)c(NC1CC1)nc1cc(C(=O)O)ccc12`, for which, in test [1], the inhibition at 0.5 µM was -38.5%. For the same molecule, the IC50 in test [2] (setting [5]) is over 10 µM; in test [3] (Homo sapiens), over 50 µM.
With `C#Cc1cccc(Nc2nc3cc(C(=O)O)ccc3c3cnc(NC4CC4)nc23)c1`, in test [1], the inhibition at 0.5 µM was -38.6%. For the same molecule, the figures for the IC50 in test [2] (setting [4]) and in test [3] (Homo sapiens) were 7.3 µM and 1.27 µM, respectively.
In the case of `C#Cc1cccc(Nc2nc3cc(C(=O)O)ccc3c3cnc(NCCCOCC)nc23)c1`, the inhibition at 0.5 µM in test [1] worked out at 2.19%. Also, the IC50 in test [3] (Homo sapiens) amounted to 0.389 µM.
For the molecule `Cc1c(-c2cc(Nc3nc4cc(C(=O)O)ccc4c4cnccc34)n(C)n2)sc2ccc(Cl)cc12`, the inhibition at 0.5 µM in test [1] was 4.53%. Moreover, the figures for the IC50 in test [2] (setting [5]) and in test [3] (Homo sapiens) were over 10 µM and 19.6 µM, respectively.
Taken in the same sequence, the figures for `O=C(O)c1ccc2c(c1)nc(Nc1cccc(Oc3ccccc3)c1)c1ccncc12` were 44.1%, over 10 µM and over 30 µM.
Taken in the same sequence, the figures for `O=C(O)c1ccc2c(c1)nc(NC1CC1)c1nc(Nc3cc(F)cc(F)c3)ncc12` were 46.3%, over 10 µM and 35.4 µM.
For `C#Cc1cccc(Nc2nc3cc(C(=O)O)ccc3c3cnc(NC)nc23)c1`, in test [1], the inhibition at 0.5 µM was determined as 68.2% and the pIC50 is 6.18. The IC50 in test [2] (setting [4]) amounted to 4.69 µM. This molecule had an IC50 in test [3] (Homo sapiens) of 1.29 µM.
For `CNC(=O)c1ccc2c(c1)nc(Nc1cccc(C(F)(F)F)c1)c1nc(NC3CC3)ncc12`, in test [1], the inhibition at 0.5 µM was determined as 16.2%. Besides, the IC50 in test [3] (Homo sapiens) stood at 3.65 µM.
Taken in the same sequence, the figures for `O=C(O)c1ccc2c(c1)nc(Nc1ccc(F)c(Cl)c1)c1nc(NCc3cccnc3)ncc12` were 19.6% and 1.5 µM.
In the case of `O=C(O)c1ccc2c(c1)nc(NC1CC1)c1nc(NCc3ccccn3)ncc12`, the inhibition at 0.5 µM in test [1] stood at 11.2%. Further, the IC50 is over 10 µM in test [2] (setting [4]) and 23.3 µM in test [3] (Homo sapiens).
Consider `CC(=O)Nc1ccc2c(c1)nc(Nc1cccc(C(F)(F)F)c1)c1nc(NC3CC3)ncc12`, for which the inhibition at 0.5 µM in test [1] was -39.8%. In addition, the IC50 in test [2] (setting [5]) is over 10 µM; in test [3] (Homo sapiens), 1.22 µM.
In the case of `COCCNc1ncc2c(n1)c(Nc1ccccc1)nc1cc(C(=O)O)ccc12`, the inhibition at 0.5 µM in test [1] worked out at 19.8%. In test [3] (Homo sapiens), this molecule yielded an IC50 of 5.8 µM.
Consider `O=C(O)c1ccc2c(c1)nc(Nc1ccccc1)c1nc(Nc3ccccc3)ncc12`, for which the inhibition at 0.5 µM in test [1] stood at 13%. For the same molecule, in test [3] (Homo sapiens), the IC50 turned out to be 8.98 µM.
Taken in the same sequence, the figures for `COC(CNc1ncc2c(n1)c(Nc1ccc(F)c(Cl)c1)nc1cc(C(=O)O)ccc12)OC` were 57.6% and 1.12 µM.
Taken in the same sequence, the figures for `CC1CCCCN1CCCNc1ncc2c(n1)c(Nc1ccc(F)c(Cl)c1)nc1cc(C(=O)O)ccc12` (stereo not drawn) [drawing 1629] were 38.9% and 2.86 µM.
For `COCCNc1ncc2c(n1)c(Nc1ccc(F)c(Cl)c1)nc1cc(C(=O)O)ccc12`, the inhibition at 0.5 µM in test [1] is 22.9%. The IC50 in test [3] (Homo sapiens) is 0.413 µM.
For the molecule `COc1cccc(Nc2ncc3c(n2)c(NC2CC2)nc2cc(C(=O)O)ccc23)c1` [drawing 1717], the “PIM-1: % inh 500 nM” value in test [1] is given as 5.494%. Further, the IC50 in test [3] is 54.6 µM.
In the case of `O=C(O)c1ccc2c(c1)nc(Nc1cc(F)cc(F)c1)c1nc(NC3CC3)ncc12`, the inhibition at 0.5 µM in test [1] was determined as 48.9%. The molecule further yielded an IC50 in test [3] (Homo sapiens) of 6.02 µM.
Taken in the same sequence, the figures for `C#Cc1cccc(Nc2nc3cc(C(=O)O)ccc3c3cnc(NCCCN4CCOCC4)nc23)c1` were 41.6% and 3.69 µM.
Taken in the same sequence, the figures for `Nc1ncc2c(n1)c(Nc1ccc(F)c(Cl)c1)nc1cc(C(=O)O)ccc12` were 38.8% and 4.34 µM.
Taken in the same sequence, the figures for `O=C(NC1CC1)c1ccc2c(c1)nc(Nc1cccc(C(F)(F)F)c1)c1nc(NC3CC3)ncc12` were 16.7% and 3.92 µM.
With `CN(C)CCNc1ncc2c(n1)c(Nc1ccc(F)c(Cl)c1)nc1cc(C(=O)O)ccc12`, in test [1], the inhibition at 0.5 µM was determined as 53%. Besides, the IC50 in test [3] (Homo sapiens) worked out at 1.25 µM.
With `C#Cc1cccc(Nc2nc3cc(C(=O)O)ccc3c3cnc(NCCCOC(C)C)nc23)c1`, in test [1], the inhibition at 0.5 µM is -1.78%. The IC50 in test [3] (Homo sapiens) amounted to 2.37 µM.
Taken in the same sequence, the figures for `CCOC(=O)CCNC(=O)c1ccc2c(c1)nc(Nc1cccc(C(F)(F)F)c1)c1nc(NC3CC3)ncc12` were 10.5% and 7.24 µM.
Taken in the same sequence, the figures for `O=C(O)c1ccc2c(c1)nc(NC1CC1)c1nc(NCCO)ncc12` were 22.4% and over 50 µM.
For the molecule `COc1cccc(Nc2ncc3c(n2)c(NC2CC2)nc2cc(C(=O)O)ccc23)c1` [drawing 1720], in test [1], the “PIM-1: % inh 500 nM” value turned out to be 60.859% and the negative logarithm of the IC50 (pIC50) was 6.01. In test [3], this molecule yielded an IC50 of 3.15 µM.
On to `COc1cccc(Nc2nc3cc(C(=O)O)ccc3c3cnc(NC4CC4)nc23)c1`, for which, in test [1], the inhibition at 0.5 µM worked out at 36.5%. The IC50 in test [3] (Homo sapiens) was 3.44 µM.
Taken in the same sequence, the figures for `C#Cc1cccc(Nc2nc3cc(C(=O)O)ccc3c3cnc(NCCC)nc23)c1` were 45.6% and 2.67 µM.
Taken in the same sequence, the figures for `CCCNc1ncc2c(n1)c(Nc1ccccc1)nc1cc(C(=O)O)ccc12` were 29.9% and 4.53 µM.
Taken in the same sequence, the figures for `O=C(O)c1ccc2c(c1)nc(Nc1ccc(F)c(Cl)c1)c1nc(NCc3ccccn3)ncc12` were 59.1% and 2.59 µM.
For `COC(=O)c1ccc2c(c1)nc(Nc1cccc(Cl)c1)c1nc(NCCC(N)=O)ncc12`, the inhibition at 0.5 µM in test [1] was -12.6%. Also, in test [3] (Homo sapiens), the IC50 stood at 4.41 µM.
Take `O=C(O)c1ccc2c(c1)nc(Nc1cncc(C3CC3)c1)c1ccncc12` [drawing 1619]: the IC50 was over 10 µM in test [2] (setting [5]) and over 50 µM in test [3] (Homo sapiens).
Taken in the same sequence, the figures for `CN(C)c1ncc2c(n1)c(Nc1cccc(Cl)c1)nc1cc(C(=O)O)ccc12` were over 10 µM and 5.83 µM.
